Test results from patent US20190328658A1, “ESTROGEN PRODRUGS AND METHODS OF ADMINISTERING ESTROGEN PRODRUGS” (Evestra, Inc., priority 2018, published 2019).
Values after ≈ are worked out from the molar mass of the structure shown.

Key:
[1] = in vitro release rates of estriol prodrugs from intravaginal rings; type: physicochemical; conditions: for Burst Release d1 / Burst Release d2 / Average API release d3-d21: ring, API loading 5.0 %, core polymer EVA28/2.5 (E3: EVA26/4.0), 37°C; for Burst Release d1: day 1; for Burst Release d2: day 2; for Average API release d3-d21: days 3-21
Description: The estriol prodrugs were processed via hot-melt extrusion and subsequent ring closure to intravaginal rings: […] The hot melt extrusion line for processing the estriol containing EVA28 powder consisted of an 18 mm twin screw extruder, equipped with a loss in weight feeder for dosing the drug containing premix into the extruder. Extrusion was performed at low throughputs of approx. 2 kg/h, the temperature profile of the extruder barrels was adjusted to yield a melt temperature of approx. 125° C. After leaving the die, the strands were directly conveyed through a water bath to obtain a fast cooling process and minimize potential strand deformation. As haul-off unit, a strand pelletizer without knives was used to pull and convey the strand accurately through all downstream sections, ensuring homogeneous strand diameters and a […] shape. […] The cross-sectional diameter of the co-extrudate was measured in-line with a laser system (3 laser heads). […] Alternatively, the ring closure was accomplished via an injection molding process equipment, equipped with a 4.0 mm mold (one or multiple cavities), using EVA28 placebo material as injection material. To determine the in vitro release rates, a rotational incubator, operated at 37±0.5° C., is used. The dissolution medium type, the dissolution medium volume and the rotational speed of the used incubator are selected to provide sink conditions.

[2] = Solubility in EVA by hot stage microscopy; type: physicochemical; conditions: for Solubility in EVA28/2.5 at 37° C. (via HSM): EVA28/2.5, hot stage microscopy
Description: Solubilities in EVA were estimated by hot stage microscopy.

[3] = stated in discussion; cited from earlier work
[4] = depending on the model applied; cited from earlier work
[5] = vaginal or oral application; cited from earlier work
[6] = Solubility in water/medium (shaking 24 hours, HPLC); conditions: 37 °C, thermodynamic from solid
Description: (§5) Solubilities were determined by shaking (24 hours) an excess of steroid in 20 ml of water/medium at 37° C. Following equilibrium, a portion was passed through a 0,22m-my filter and the steroid concentration in the filtrate was determined by high-performance liquid chromatography.

[7] = EP '025; cited from earlier work
[8] = cited from earlier work
[9] = Caco-2 permeability (A-to-B); type: in vitro ADME; conditions: human; Caco-2, A-to-B, 120 minutes, dosing 5myM
Description: (§1) Caco-2 cells (clone C2BBel) were obtained from American Culture Collection. Cell monolayers were grown to confluence on collagen-coated, microporous membranes in 12-well assay plates. The permeability assay buffer was Hank's balanced salt solution. The buffer in the receiving chamber also contained 1% bovine serum albumin. The dosing solution concentration was 5myMof test article in the assay buffer. Cell monolayers were dosed on the apical side (A-to-B) and incubated at 37° C. with 5% CO2 in a humidified incubator. Samples were taken from the donor and receiver chamber at 120 minutes. All samples were assayed by LC-MS/MS using electrospray ionization. The apparent permeability (Papp) were calculated as follows: […]
(§2) With dCr/dt being the slope of the cumulative concentration in the recover compartment versus time in ny Ms^−1;
(§3) Vr is the volume of the receiver compartment in cm^3
(§4) A is the area of the insert (1.13 cm^2 for 12-well)

Log P = type: physicochemical; conditions: Table 2
Description: Example 10: Determination of Log p and Permeability Values of Estriol Prodrugs

[10] = tested on: Caco-2 cells (clone C2BBel); test: Caco-2 permeability (A-to-B); type: in vitro ADME; conditions: Caco-2
Description: as §1, §2, §3, §4

physchem = conditions: 37 °C, water, thermodynamic from solid
Description: as §5

C[C@]12CC[C@@H]3c4ccc(O)cc4CC[C@H]3[C@@H]1C[C@@H](O)[C@@H]2O [Example E3, Estriol]
Burst Release d1 [1]: 665.1 µg | Burst Release d2 [1]: 294.5 µg | Average API release d3-d21 [1]: 119.4 µg/day | Solubility in EVA28/2.5 at 37° C. (via HSM) [2]: 0.5-1% | log P [3]: 2.81 | reduction in activity compared to estradiol [4]: 10 to 30% | time after application after which no estriol plasma level above the limit could be determined [5]: 4 to 6 h | solubility at 24 h ([6]; water + 2% SLS, aqueous with cosolvent or surfactant or cyclodextrin): 0.465 mg/mL | solubility at 24 h ([6]; water): 0.0584 mg/mL (≈ 203 µM)

CC(=O)Oc1ccc2c(c1)CC[C@@H]1[C@@H]2CC[C@]2(C)[C@@H](O)CC[C@@H]12 [estradiol-3-acetate, estradiol 3-acetate]
daily release rate compared to estradiol [7]: above 45 fold | solubility in silicone compared to estradiol ([8]; silicone): around 10 fold | solubility in water compared to estradiol ([8]; water): twofold higher

C#C[C@]1(O)CC[C@H]2[C@@H]3CCc4cc(O)ccc4[C@H]3CC[C@@]21C [EE, ethinyl estradiol, reference compound]
Papp A→B at 120 min, 5 µM [9]: 425 nm/s | recovery at 120 min, 5 µM [9]: 59% | logP (Log P): 4.52

C[C@]12CCC3c4ccc(OC(=O)C5CC5)cc4CCC3C1C[C@@H](O)[C@@H]2OC(=O)C1CC1 (stereo partly drawn) [EC5106, 3,16α,17β-Trihydroxyestra-1,3,5(10)-triene 3,17-biscyclopropane carboxylate]
Papp A→B at 120 min, 5 µM [9]: 114 nm/s | recovery at 120 min, 5 µM [9]: 25% | logP (Log P): 3.99

C[C@]12CCC3c4ccc(OC(=O)C5CC5)cc4CCC3C1C[C@@H](O)[C@@H]2O (stereo partly drawn) [EC5105, (8xi,9xi,14xi,16α,17β)-16,17-dihydroxyestra-1(10),2,4-trien-3-yl cyclopropanecarboxylate]
Burst Release d1 [1]: 4301.1 µg | Burst Release d2 [1]: 1369.8 µg | Average API release d3-d21 [1]: 567.3 µg/day | Papp A→B at 120 min, 5 µM [9]: 17.6 nm/s | recovery at 120 min, 5 µM [9]: 3% | Caco-2 permeability, comparison in words [10]: very low permeability compared to the 17 analog | logP (Log P): 3.38 | Solubility in EVA28/2.5 at 37° C. (via HSM) [2]: 0.5-2 wt % | solubility at 24 h (physchem): 0.0049 mg/mL (≈ 13.7 µM)

C[C@]12CCC3c4ccc(O)cc4CCC3C1C[C@@H](O)[C@@H]2OC(=O)C1CC1 (stereo partly drawn) [EC537, (16R,17R)-3,16-dihydroxy-7,8,9,11,12,13,14,15,16,17-decahydro-6H-cyclopenta α phenanthren-17-yl cyclopropanecarboxylate]
daily release rate compared to estriol-3-acetate [1]: around 10 fold | Burst Release d1 [1]: 15521.1 µg | Burst Release d2 [1]: 6229.4 µg | Average API release d3-d21 [1]: 1785.5 µg/day | Papp A→B at 120 min, 5 µM [9]: 240 nm/s | recovery at 120 min, 5 µM [9]: 26% | logP (Log P): 3.55 | Solubility in EVA28/2.5 at 37° C. (via HSM) [2]: 4-5 wt % | solubility at 24 h (physchem): 0.0042 mg/mL (≈ 11.8 µM)

CC(=O)Oc1ccc2c(c1)CCC1C2CC[C@@]2(C)C1C[C@@H](O)[C@@H]2O (stereo partly drawn) [EC5104, (8xi,9xi,14xi,16α,17β)-16,17-dihydroxyestra-1(10),2,4-trien-3-yl acetate]
Burst Release d1 [1]: 2891.6 µg | Burst Release d2 [1]: 1322.0 µg | Average API release d3-d21 [1]: 548.1 µg/day | Papp A→B at 120 min, 5 µM [9]: 237 nm/s | recovery at 120 min, 5 µM [9]: 64% | logP (Log P): 3.02 | solubility in EVA compared to estriol [2]: comparable to the estriol solubility in EVA | Solubility in EVA28/2.5 at 37° C. (via HSM) [2]: 0.5 wt % | solubility at 24 h (physchem): 0.0578 mg/mL

CC(=O)O[C@H]1CC[C@H]2[C@@H]3CCc4cc(O)ccc4[C@H]3CC[C@]12C [17-acetate derivative of estradiol]
daily release rate compared to estradiol [7]: around 3 fold

C[C@]12CC[C@@H]3c4ccc(O)cc4CC[C@H]3[C@@H]1CC[C@@H]2O [Example E2, estradiol, reference compound]
recovery at 120 min, 5 µM [9]: 15% | logP (Log P): 4.13 | log P [3]: 3.94
